We go through two compounds from US20210046162A1, “Teriparatide Use for Bone Stress Fractures/Reactions” (University of South Carolina, priority 2019, published 2021).

Data set [1] deals with distal radial fracture. Particulars: cited from earlier work; for time to radiographic healing: placebo 9.1 weeks.
Data set [2] has as its system tibial fractures. The settings on record: rats, after 20 and 40 days of healing, cited from earlier work.
For data set [3] the following is noted: cited from earlier work; for bioavailability: after subcutaneous injection.
Data set [4] deals with osteosarcoma. Particulars: over 16,000 unique patients, post-market analysis; cited from earlier work.
Data set [5] can be described thus: Plasma teriparatide concentrations after a single subcutaneous injection (FIG. 9). Particulars: sc.
Source text: (§1) As used herein “peak concentration (CMAX) of PTH peptide in a blood plasma”, “area under concentration vs. time curve (AUC) of PTH peptide in a blood plasma”, “time to maximal plasma concentration (tMAX) of PTH peptide in a blood plasma” are pharmacokinetic parameters known to one skilled in the art. […] The “concentration vs. time curve” measures the concentration of PTH peptide in a blood serum of a subject vs. time after administration of a dosage of PTH peptide to the subject either by intranasal, intramuscular, subcutaneous, or other parenteral route of administration. “CMAX” is the maximum concentration of PTH peptide in the blood serum of a subject following a single dosage of PTH peptide to the subject. “TMAX” is the time to reach maximum concentration of PTH peptide in a blood serum of a subject following administration of a single dosage of PTH peptide to the subject. […] Mean changes of teriparatide acetate (in picograms per liter) in plasma after a single subcutaneous injection of teriparatide (filled circle 56.5 μg, filled triangle 28.2 μg) to 360 min. Bars represent standard deviation.
Data set [6] concerns stress fractures (DTSFs). The experiment in a line: Teriparatide therapy of stress fractures in NCAA collegiate athletes (FIG. 8). The format is in vivo, humans. Particulars: 20 mcg dose, at least 28 days. The source says:
The current disclosure has administered teriparatide at the 20 mcg dose to young adult NCAA collegiate athletes who have DTSFs. Our promising clinical findings, see, e.g., FIG. 8, have led us to hypothesize that teriparatide will have a positive effect on bone healing and return to duty among service members with DTSFs. While a dosage of 20 mcg has been found effective, other dosages are considered within the scope of this application such as ranges from 5-50 mcg, 10-40 mcg, 15-35 mcg, 20-30 mcg, etc. In one embodiment, the preferred range is 10 mcg-40 mcg.
The PTH peptide can also be administered in conjunction with other therapeutic agents such as bisphonates, calcium, vitamin D, estrogen or estrogen-receptor binding compounds, selective estrogen receptor modulators (SERMs), bone morphogenic proteins and/or calcitonin. In one embodiment, 500 mg calcium may be administered daily for the duration of treatment with teriparatide. Vitamin D may also be administered along with teriparatide. Unless a patient is hypercalemic, defined as a total serum calcium concentration >10.4 mg/dL (>2.60 mmol/L) or ionized serum calcium >5.2 mg/dL (>1.30 mmol/L), calcium would be used as part of the treatment regimen. For patients with low vitamin D concentrations, defined as a 25(OH)D concentration of 12 to 20 ng/mL (30 to 50 nmol/L), Vitamin D may also be administered during treatment descried herein. […]

For data set [7] the following is noted: in vivo, sc.
Source text: as §1

Read-outs that look alike come from different tables or passages of the source.

Regarding `CC[C@H](C)[C@H](NC(=O)[C@H](CCC(=O)O)NC(=O)[C@H](CO)NC(=O)[C@@H](NC(=O)[C@@H](N)CO)C(C)C)C(=O)N[C@@H](CCC(N)=O)C(=O)N[C@@H](CC(C)C)C(=O)N[C@@H](CCSC)C(=O)N[C@@H](Cc1cnc[nH]1)C(=O)N[C@@H](CC(N)=O)C(=O)N[C@@H](CC(C)C)C(=O)NCC(=O)N[C@@H](CCCCN)C(=O)N[C@@H](Cc1cnc[nH]1)C(=O)N[C@@H](CC(C)C)C(=O)N[C@@H](CC(N)=O)C(=O)N[C@@H](CO)C(=O)N[C@@H](CCSC)C(=O)N[C@@H](CCC(=O)O)C(=O)N[C@@H](CCCN=C(N)N)C(=O)N[C@H](C(=O)N[C@@H](CCC(=O)O)C(=O)N[C@@H](Cc1c[nH]c2ccccc12)C(=O)N[C@@H](CC(C)C)C(=O)N[C@@H](CCCN=C(N)N)C(=O)N[C@@H](CCCCN)C(=O)N[C@@H](CCCCN)C(=O)N[C@@H](CC(C)C)C(=O)N[C@@H](CCC(N)=O)C(=O)N[C@@H](CC(=O)O)C(=O)N[C@H](C(=O)N[C@@H](Cc1cnc[nH]1)C(=O)N[C@@H](CC(N)=O)C(=O)N[C@@H](Cc1ccccc1)C(=O)O)C(C)C)C(C)C` [teriparatide], in data set [1] (20 mcg daily for 8 weeks), the “time to healing compared with placebo group” value is on record as “shorter” and the “time to radiographic healing” value is on record as 7.4 weeks. In addition, in data set [1] (40 mcg daily for 8 weeks), the “improvement in healing time compared with placebo” value is given as “not a statistically significant improvement” and the “time to radiographic healing” value is 8.8 weeks. For the same compound, in data set [2] (60 and 200 kg/day once daily), the “mechanical strength of fractures” value is on record as “increased”. The callus quantity in data set [2] (once daily) is “increased”. The bioavailability in data set [3] is on record as 95%. Further, in data set [3] (subcutaneous injection), the Absolute bioavailability was 95%, the half-life result was “approximately 1 hour”, the “half-life after subcutaneous injection” value is reported as “approximately 1 hours” and the “time to peak concentrations” value is 30 min. In addition, the “reported cases of osteosarcoma in humans” value in data set [4] was “have not been any reported cases”. In data set [5] (28.2 ug), the Cmax was found to be 0.193 ± 0.0353 ng/mL, the Tmax was 0.9 h and the half-life came to 1.16 ± 0.217 h. In data set [5] (56.5 ug), the Cmax came out at 0.338 ± 0.134 ng/mL, the Tmax is 0.875 h and the half-life worked out at 1.29 ± 0.587 h. In data set [6], the “healing of the subjects' stress fractures” value was “resulted in healing”. In data set [7] (28.2 ug), this compound had an AUCinf of 28.07 ± 2.47 ng/min/mL and an AUClast of 25.84 ± 3.18 ng/min/mL. Moreover, in data set [7] (56.5 ug), the AUCinf is 52.73 ± 10.03 ng/min/mL, the AUClast is 49.91 ± 11.33 ng/min/mL and the “time after the injection at which Cmax was achieved” value is reported as 1 h.
On to “PTH 1-84: full-length human parathyroid hormone, an 84 amino acids peptide with N-terminal and C-terminal regions”, for which the bioavailability in data set [3] is 55%. In addition, in data set [3] (compared with PTH 1-34), the duration of action entry is listed as “longer”. The “half-life after subcutaneous injection” value in data set [3] (subcutaneous injection) is recorded as “approximately 2.5 hours”.

As usually defined, the bioavailability is the share of a dose that reaches the circulation, judged against a reference dose that is usually intravenous. As a reminder, the half-life is the time needed for the level to fall by half in the phase considered. As a reminder, the Cmax is the highest concentration seen after dosing. What is called Tmax is the time from dosing to the highest level.
